# Measurements as given in patent US20120039917A1, “IMMUNO[…]” (priority 2008, published 2012).
# Values joined by “and” are separate entries in the source; they are usually repeats but may differ in a detail not shown here. Equal entries are not always repeated.
# Experiments:
# [1] = test system: primary ALL blasts; assay: Viability of leukemic blasts from bone marrow samples, AV/PI staining; assay type: cell-based, human
# Method: (§1) FIG. 6. Sensitivity of different cell types to PXD. Different cell types were incubated with 10 μM PXD for 24 h and viability was determined by AV/PI staining and reported as [% viable blasts after PXD exposure]/[% viable blasts after 0.1% DMSO exposure]. Percentage values are as follows: AML-derived HL60: 16±5 and HL60p°: 54±6, ALL-derived MOLT-4: 44±4, MM-derived U226: 59±6 and RPMI 8226: 12±4, primary AML blasts: 64±5, primary ALL blasts: 23±4, normal BM: 89±5, proliferating T cells: 69±4, resting T cells: 98±6. Results from cell lines are presented as the average±SEM of at least 3 separate experiments, results from bone marrow samples are presented as the average±SD of single experiments performed in duplicate.
# (§2) Bone marrow samples from AML (n=22) and ALL (n=8) patients, containing more than 80% blasts, were selected from the tissue bank. Bone marrow samples were thawed, centrifuged at 1400 rpm in a Multifuge 3 s (Heraeus) for 4 min, washed twice in RPMI and resuspended in RPMI+10% FCS. Aliquots were incubated for 24 h in the presence of 0.1% DMSO (control) or 10 μM PXD and examined for morphology and viability. […] was determined by AV/PI staining as [% viable blasts after PXD treatment]/[% viable blasts in control sample].
# (§3) Cells were centrifuged at 1400 rpm in a Multifuge 3 s (Heraeus) for 4 min at room temperature, washed in phosphate buffered saline solution, pH 7.3 (PBS) and resuspended in Annexin V binding buffer. Small aliquots (0.5-1×10^6 cells) were transferred to 1.5 mL tubes and spun at 1400 rpm in a Multifuge 3 s (Heraeus) for 4 min. Most supernatant was removed and 5 μL PI and 5 μL FITC-labelled AV was added to the wet pellets which were vortexed. After 30 min in the dark on ice, 500 μl of AV binding buffer was added, the cells were centrifuged for 2 min at 1400 rpm, washed once with AV binding buffer and resuspended in 300 μL of AV binding buffer in FACS tubes. Staining was analyzed by flow cytometry using a Becton Dickinson Canto II FACS analyser using FlowJo (TreeStar) software.
# [2] = test system: primary AML blasts; assay: as above; assay type: cell-based, human
# Method: as §1, §2, §3
# [3] = test system: responder T cells; assay: HLA-mismatched mixed lymphocyte reaction in the presence of PXD; assay type: cell-based, human; conditions: 10 μM PXD on day 0, analysed day 8
# Method: (§4) Mixed lymphocyte reactions were established using unrelated, HLA-mismatched healthy donor blood samples as donor/recipient pairs. Stimulator PBMC were γ-irradiated with 30 Gy as described previously (Zenhausen et al., 2007). Responder PBMC were washed twice in PBS, 5,6-carboxy-succinimidyl-fluorescein-ester (CSFE)-labelled (1.25 μM, Sigma) at room temperature for 5 minutes, and washed twice in PBS/10% FCS. Two hundred thousand stimulator and responder cells were added per well at a 1:1 ratio in a 96 U-well plate in T cell medium. Stimulator and responder cells were also plated alone, and all cells were cultured in a 5% CO2, 37° C. humidified incubator. Viability, CFSE fluorescence and cell surface antigen expression were determined by flow cytometry. Cells were washed twice in FACS buffer (PBS, 2% FCS), and resuspended in 50 μL/5×10^5 cells and analysed on a Becton Dickinson LSRII FACS analyser using FlowJo (TreeStar) software.
# The ability of PXD to induce apoptosis in proliferating T cells was further tested in a HLA-mismatched MLR. CFSE labelled responder cells were mixed with HLA-mismatched γ-irradiated stimulator cells in the presence of 0.1% DMSO (control) and 10 μM PXD on day 0. Responder cells were analysed for proliferation (CFSEIO) and viability (AV^−) at day 8 to allow exposure of proliferating responder cells to the drug for several days.
# [4] = Sensitivity of cell types to PXD, viability by AV/PI staining; assay type: cell-based; conditions: human, normal bone marrow cells; normal BM, 10 μM PXD for 24 h; read-out: [% viable blasts after PXD exposure]/[% viable blasts after 0.1% DMSO exposure]
# Method: as §1
# Bone marrow samples from AML (n=22) and ALL (n=8) patients, containing more than 80% blasts, were selected from the tissue bank. […] was determined by AV/PI staining as [% viable blasts after PXD treatment]/[% viable blasts in control sample].
# (§5) Cells were centrifuged at 1400 rpm in a Multifuge 3 s (Heraeus) for 4 min at room temperature, washed in phosphate buffered saline solution, pH 7.3 (PBS) and resuspended in Annexin V binding buffer. […] Staining was analyzed by flow cytometry using a Becton Dickinson Canto II FACS analyser using FlowJo (TreeStar) software.
# [5] = test system: unstimulated T cells; assay: HLA-mismatched MLR after transient exposure of unstimulated T cells to PXD; assay type: cell-based, human; conditions: 10 μM PXD 24 h, washed, then MLR, FACS 8 days later; control MLR 62.6%
# Method: as §4
# The inventors next determined whether a transient exposure to PXD affected the ability of unstimulated T cells to respond normally to foreign antigen. Unstimulated T cells were incubated with 10 μM PXD for 24 h, washed twice and stimulated by adding HLA-mismatched γ-irradiated stimulator cells.
# [6] = test system: resting T cells; assay: Apoptosis/viability by Annexin V/propidium iodide staining; assay type: cell-based, human; conditions: 10 μM PXD for 24 h
# Method: (§6) Immediately prior to experiments, frozen PBMC were thawed, centrifuged at 1400 rpm in a Multifuge 3 s (Heraeus) for 4 min, washed in RPMI+10% FCS and resuspended in T cell medium (RPMI+10% FCS+10 μM 2-mercaptoethanol (Sigma), 1×glutamine, 1×non-essential amino acids (Gibco)) at 2×10^6 cells/mL. Cells (2×10^5) were activated by adding 10 μg/mL anti-CD3 and 5 μg/mL anti-CD28 and 20 U/mL IL-2 per well. Cells were incubated at 37° C. in a humidified incubator maintained at 5% CO2 for 4 to 5 days until large numbers of large spherical aggregates or “bursts” of lymphocytes were observed. Activated proliferating T cells were pooled from the wells for further experiments. Resting T cells were incubated for the same length of time but in the presence of 20 U/mL IL-2 only.
# as §5, with “buffer. Small aliquots (0.5-1×10^6 cells) were transferred to 1.5 mL tubes and spun at 1400 rpm in a Multifuge 3 s (Heraeus) for 4 min.” for “buffer.”
# (§7) The extent of apoptosis in resting and proliferating T cells was determined after 24 h exposure to 10 μM PXD (FIG. 2) by AV/PI staining. […]
# [7] = as above; assay type: cell-based, human; conditions: human, resting T cells from PBMC; resting T cells, 10 μM PXD for 24 h; read-out: [% viable blasts after PXD exposure]/[% viable blasts after 0.1% DMSO exposure]
# Method: as §6
# as §5, with “buffer. Small aliquots (0.5-1×10^6 cells) were transferred to 1.5 mL tubes and spun at 1400 rpm in a Multifuge 3 s (Heraeus) for 4 min.” for “buffer.”
# as §7
smiles,measurement,setting,value
"Oc1ccc(C2=Cc3ccc(O)cc3OC2)cc1 [PXD, Isoflav-3-en-4′,7-diol]",viability at 10 µM,"[1]; Homo sapiens, 24 h, primary ALL blasts (average), 10 μM PXD for 24 h, read-out: [% viable blasts after PXD exposure]/[% viable blasts after 0.1% DMSO exposure]",23 ± 4%
same,% Viable Blasts,"[1]; individual ALL patient bone marrow samples, 10 μM PXD 24 h, relative to 0.1% DMSO control",25% and 29% and 37% and 40% and 7% and 14% and 16% and 19%
same,viability at 10 µM,"[2]; Homo sapiens, 24 h, primary AML blasts (average), 10 μM PXD for 24 h, read-out: [% viable blasts after PXD exposure]/[% viable blasts after 0.1% DMSO exposure]",64 ± 5%
same,% Viable Blasts,"[2]; individual AML patient bone marrow samples, 10 μM PXD 24 h, relative to 0.1% DMSO control",23% and 32% and 36% and 39% and 44% and 49% and 55% and 57% and 58% and 62% and 67% and 71% and 75% and 88% and 92% and 95% and 96% and 97% and 99% and 20%
same,resting responder cell population (CD3+CFSEhiAV−),[3],present in both control and PXD treated MLR
same,proliferating allogeneic T cells (CD3+CFSloAV− population),[3]; control MLR 46.5%,2%
same,"viability at 24 h, 10 μM",[4],89 ± 5%
same,CD3+CFSEloAV− population after transient exposure,[5],56.2%
same,percentage of viable resting T cells (AV/PI),[6],unaltered
same,"viability at 24 h, 10 μM",[7],98 ± 6%
